Reference: patent US11376294B2, “Mangiferin-containing compositions for improving sports performance” (priority 2016, dated 2022)

Assays:
[1] = test system: pyramidal cells in hippocampus slices of rat brains; assay: Ex vivo population spikes in hippocampal slice preparation, Example 6
Method: Hippocampus slices of rat brains were tested. After daily administration of trial medication for one week, 4 animals were sacrificed under deep anesthesia and the hippocampus was removed and chopped by a vibrating razor blade to give 6 slices of about […] thickness per animal. Slices were taken one day after the last treatment. After adaptation to artificial cerebrospinal fluid for one hour, slices were transferred to an incubation chamber and superfused with cerebrospinal fluid at 35° C. Schaffer collaterals are branches extending from the axons of CA3 pyramidal cells in the hippocampus. Schaffer collaterals project to the CA1 area of the hippocampus, and are an integral part of memory formation. The Schaffer Collaterals were stimulated by single stimuli or theta burst stimuli, where theta burst stimuli are short bursts of stimulation at high frequencies, applied 5 times per second.

Fisher 344 rats [2] = assay: EEG in rats administered mango leaf extract and/or caffeine, Example 5; assay type: in vivo, rat; conditions: 0.50 mg/kg oral
Excerpt: After automatic artefact rejection, signals were collected in sweeps of 4 s duration and Fast Fourier transformed using a Hanning window. […] Nine adult male Fisher 344 rats (5 months of age and day-night converted, weight about 350-400 g, were implanted with electrodes into the brain and were given two weeks for recovery from surgery. Three animals dropped the implant after performance of a placebo series. […] A crossover design with at least three days of drug holidays in between drug administrations was used. […] The animals were dosed orally at a constant volume of 1.0 ml/kg per kg body weight. The dosage administered to each animal was determined every day by the weight of that animal at the time of administration. Data were averaged from 5-9 animals, and are expressed as mean values±S.E.M.

Fisher 344 rats [3] = assay: EEG in freely moving rats, two recording periods, Example 2; assay type: in vivo, rat; conditions: oral, FIG. 2B/2C, period not separated
Method: Products were provided to the test subjects orally (gavage).
EEG signals were recorded by telemetry from 4 implanted electrodes in the frontal cortex, hippocampus and striatum of freely moving rats from inside a totally copper shielded room.

brain wave activity = assay: General statements on CNS activity, equivalence, onset and duration after ingestion; assay type: in vivo
acetylcholinesterase = acetylcholinesterase (Homo sapiens, UniProt P22303); conditions: cited from earlier work
Fisher 344 rats [4] = assay: EEG (electropharmacogram) in freely moving rats, Example 1; assay type: in vivo, rat; conditions: oral gavage, 5-65 min after administration, FIG. 1
Method: Fisher 344 rats (11 months of age and day-night converted, weight about 350-400 g, provided by Charles River Laboratories, D-97633, Sulzfeld) were used in a series of experiments on the effects of various herbal and pharmaceutical products on central nervous system activity. Products were provided to the test subjects orally (gavage).
EEG signals were recorded by telemetry from 4 implanted electrodes in the frontal cortex, hippocampus and striatum of freely moving rats from inside a totally copper shielded room. Signals were collected in sweeps of 4 second duration and Fast Fourier transformed using a Hanning window. EEG signals were recorded over a period starting 5 minutes after administration of the test substances, and ending 65 minutes after administration of the test substances. Sampling frequency was 512 Hz. […] In an off-line procedure the spectra were averaged to give longer periods for further analysis and data presentation. Spectral activity within the frontal cortex, hippocampus, striatum and reticular formation was recorded.

MAOA = biological target: T1, MAOA (Homo sapiens, UniProt P21397); conditions: said to underlie anti-depressant-like effect; cited from earlier work
T1 sequence (P21397 1-527): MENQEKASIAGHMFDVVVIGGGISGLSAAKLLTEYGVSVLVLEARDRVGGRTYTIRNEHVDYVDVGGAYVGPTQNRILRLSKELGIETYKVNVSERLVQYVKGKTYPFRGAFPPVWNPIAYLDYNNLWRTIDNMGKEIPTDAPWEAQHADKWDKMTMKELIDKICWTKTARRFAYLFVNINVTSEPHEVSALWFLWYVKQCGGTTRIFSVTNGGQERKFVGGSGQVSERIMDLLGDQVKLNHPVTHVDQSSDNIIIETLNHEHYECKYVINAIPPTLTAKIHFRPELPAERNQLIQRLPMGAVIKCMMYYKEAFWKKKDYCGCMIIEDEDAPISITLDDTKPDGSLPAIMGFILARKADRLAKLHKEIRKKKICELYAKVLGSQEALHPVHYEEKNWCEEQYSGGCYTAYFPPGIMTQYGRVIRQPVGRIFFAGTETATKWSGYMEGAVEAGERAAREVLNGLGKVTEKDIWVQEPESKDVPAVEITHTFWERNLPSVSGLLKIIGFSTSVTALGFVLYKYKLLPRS

Chain of acetylcholinesterase (P22303 32-614, species assumed): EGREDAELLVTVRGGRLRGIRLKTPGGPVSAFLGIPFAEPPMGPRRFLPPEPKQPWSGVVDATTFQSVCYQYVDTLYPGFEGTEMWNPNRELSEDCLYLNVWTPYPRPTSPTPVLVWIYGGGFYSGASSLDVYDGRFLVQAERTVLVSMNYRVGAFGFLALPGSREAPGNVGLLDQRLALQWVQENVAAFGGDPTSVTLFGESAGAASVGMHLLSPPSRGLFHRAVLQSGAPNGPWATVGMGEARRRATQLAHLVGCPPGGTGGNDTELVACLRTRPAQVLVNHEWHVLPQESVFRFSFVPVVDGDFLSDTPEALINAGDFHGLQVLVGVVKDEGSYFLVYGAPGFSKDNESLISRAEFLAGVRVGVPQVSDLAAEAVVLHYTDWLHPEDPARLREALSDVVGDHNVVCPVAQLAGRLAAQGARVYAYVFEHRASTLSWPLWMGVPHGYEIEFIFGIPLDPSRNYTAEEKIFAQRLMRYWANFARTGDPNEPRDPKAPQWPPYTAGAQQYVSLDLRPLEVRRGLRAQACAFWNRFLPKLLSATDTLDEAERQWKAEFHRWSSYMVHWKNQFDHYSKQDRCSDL

Row | SMILES | Amplitude (population spike), Single Stimulation ([1]; SS, slices after one week daily dosing, caffeine 0.5 mg/kg, mango leaf extract 25 mg/kg) | Amplitude (population spike), Theta Burst Stimulation ([1]; TBS, slices after one week daily dosing, caffeine 0.5 mg/kg, mango leaf extract 25 mg/kg) | pyramidal cell activity ([1]; Table 1 and FIG. 11) | delta waves in the striatum (Fisher 344 rats [2]; FIG. 6) | delta, theta and beta power in the hippocampus (Fisher 344 rats [2]; FIG. 6) | delta power in the frontal cortex (Fisher 344 rats [2]; FIG. 6, p<0.1) | delta power in the frontal cortex and reticular formation (Fisher 344 rats [2]; from the second hour after administration on) | alpha2 power (Fisher 344 rats [2]; last hour, p<0.05 in the reticular formation) | gamma wave activity in the striatum (Fisher 344 rats [3]) | caffeine-type side-effects (nausea, fast or irregular pulse, irritability, loss of concentration) (brain wave activity; even at high servings or doses) | dose dependence of CNS stimulation beyond a threshold (brain wave activity; in vivo) | calming activity when ingested (brain wave activity; unlike caffeine) | acetylcholinesterase inhibition (acetylcholinesterase) | CNS profile (EEG) compared with reference substances (Fisher 344 rats [4]) | MAOA inhibition (MAOA)
1 | Cn1c(=O)c2c(ncn2C)n(C)c1=O [Caffeine] | 1.3 (SS) mv | 3.1 (TBS) mv | significantly smaller effect on such activity than mango leaf extract | minor but statistically conspicuous decrease | statistically significant attenuation | statistically conspicuous attenuation | statistically significant increases of delta power | increases of alpha2 power were observed except for the striatum |  |  |  |  |  |  | 
2 | O=c1c2cc(O)c(O)cc2oc2cc(O)c([C@@H]3O[C@H](CO)[C@@H](O)[C@H](O)[C@H]3O)c(O)c12 [Mangiferin] |  |  |  |  |  |  |  |  | not observed | none of the well-known side-effects | plateau effect | calming, de-stressing activity | acetylcholinesterase inhibiting activity | surprisingly similar to the CNS profiles of reference caffeine, citicolin and Guarana | inhibition of MAOA
